Measured values reported in patent US10100010B1, “4-methoxy pyrrole derivatives or salts thereof and pharmaceutical composition comprising the same” (Daewoong Pharmaceutical Co., Ltd., priority 2015, dated 2018).
Counter-ions that a name gives are not always drawn.

Columns and labels:
[1] = system: indomethacin-induced gastric damage in rats; test: Gastric damage inhibitory activity against indomethacin-induced gastric damage in rats; assay type: in vivo, Sprague Dawley (SD) rats; settings: 2.0 mg/kg oral, 1 hour before indomethacin 80 mg/kg
Experimental: The inhibitory activity against the gastric damage of the compounds prepared in Examples 2 and 8 was measured using indomethacin model (Chiou., Et al., 2005, gastroenterology, 128, p 63-73). Male Sprague Dawley (SD) rats (body weight 180-220 g) was divided into 5 groups (n=10) and fasted for 24 hours with free access to water. Control group was orally administered with 5 mL/kg of 0.5% methyl cellulose (MC) aqueous solution, and the other groups were orally administered with test compounds suspended in 0.5% methyl cellulose (MC) aqueous solution at a dose of 2.0 mg/kg/5 ml. For comparison, the compound of Example 134 (Comparative Example 1) and the compound of Example 165 (Comparative Example 2) in International Patent Publication No. WO 2006/036024 were orally administered at a dose of 2.0 mg/kg/5 ml by suspending 0.5% methylcellulose (MC) aqueous solution, respectively. […] The incised stomach was placed on a fixture, fixed by a fixing pin while spreading out using a forcep and then the gastric damage area was measured. % Inhibitory activity of test compounds was calculated according to the following Equation 2, and the results are shown in Table 3. % Inhibitory activity of test compound=[1−(gastric damage area % of the group treated with test compounds)/(gastric damage area % of control group)]×100 [Equation 2]

M1 = target: T1, M1 (Homo sapiens, UniProt P11229); test: GPCR Calcium Flux assay (FLIPR tetra, Eurofins), M1; assay type: cell-based; settings: single concentration of 10 uM; read-out: inhibition rate (%) M1
T1 sequence (P11229 1-460): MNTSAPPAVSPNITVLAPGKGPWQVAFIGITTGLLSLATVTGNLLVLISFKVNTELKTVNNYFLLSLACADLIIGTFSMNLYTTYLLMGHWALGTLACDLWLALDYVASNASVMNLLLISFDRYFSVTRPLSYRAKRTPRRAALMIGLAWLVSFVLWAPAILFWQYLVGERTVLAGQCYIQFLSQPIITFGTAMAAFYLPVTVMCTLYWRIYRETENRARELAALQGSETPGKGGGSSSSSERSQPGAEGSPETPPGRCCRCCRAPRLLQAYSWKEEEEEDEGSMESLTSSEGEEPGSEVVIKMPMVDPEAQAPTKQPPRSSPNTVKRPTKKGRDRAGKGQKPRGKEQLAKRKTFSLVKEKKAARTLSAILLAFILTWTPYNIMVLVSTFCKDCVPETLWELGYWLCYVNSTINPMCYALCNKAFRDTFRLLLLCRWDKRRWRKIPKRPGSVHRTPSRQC
Experimental: In order to confirm whether the compounds prepared in the above Examples act as an agonist or antagonist against GPCR Target, Calcium Flux assay was performed in an assay plate in which the compounds prepared in the Examples, vehicle controls, and reference compounds were added, using a Fluorometric imaging plate reader (FLIPR tetra) equipment.
Calcium Flux assay was evaluated by entrusting the GPCR profiler assay in Safety panel assays with Eurofins. By using the Fluo-8AM calcium dye, excitation was measured at a wavelength in the range of 470 to 495 nm and Emission was measured at a wavelength in the range of 515-575 nm. GPCR Assay Buffer for Calcium Flux assay was prepared by adding 20 mM of HEPES and 2.5 mM of Probenecid to Hanks Balanced Salt Solution (HBSS) to have pH 7.4. The Compounds of Examples for evaluation of the GPCR were diluted with DMSO at a concentration of 10 mM to make a stock and then prepared by diluting in the GPCR Assay Buffer at the concentration equivalent to three times the final concentration. First, for the evaluation of GPCRs, the inhibitory activity of the compounds of the Examples was evaluated at a single concentration of 10 uM, and then the respective selected targets were four fold-diluted from 10 uM to the low side to calculate 50% inhibitory concentration (IC50), prepared at the total 8 concentrations of 10, 2.5, 0.62, 0.15, 0.04, 0.01, 0.0024, 0.0006 uM, and Calcium Flux assay for GPCR was conducted. In order to evaluate the agonist and antagonist, % inhibition rate against GPCR activity before and after treatment of the compounds and the inhibitory activity of the compounds of the Examples were determined.
As a result, when the efficacy of […] and acetylcholine of the compounds prepared in the Examples was 100%, the inhibition rate (%) at a single concentration of 10 uM was evaluated and shown in Table 8.

With `CNCc1cn(S(=O)(=O)c2cccc(C(F)(F)F)c2)c(-c2ccccc2F)c1OC` [Example 2, hydrochloride] the “% inhibitory activity (gastric damage area)” value [1] was 91.8% and the inhibition at 10 µM (M1) was 92.7%.
